According to PubChem BioAssay (NCI):
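Cultured in 96-well plates, cells were exposed to test compound for 48 hours across five concentrations. GI50 is the concentration that inhibits growth by half. Definition used: TGI = concentration required for complete inhibition of growth.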

Tests used:
Assay in all cases: NCI tumour cell line growth inhibition, 48 h
ACHN renal = tested on: ACHN renal
DU-145 prostate = tested on: DU-145 prostate
HT29 colon = tested on: HT29 colon
NCI-H460 lung = tested on: NCI-H460 lung
NCI-H522 lung = tested on: NCI-H522 lung
OVCAR-4 ovarian = tested on: OVCAR-4 ovarian
PC-3 prostate = tested on: PC-3 prostate
SF-268 CNS = tested on: SF-268 CNS
SF-295 CNS = tested on: SF-295 CNS
UACC-62 melanoma = tested on: UACC-62 melanoma

Compound	TGI (ACHN renal)	TGI (DU-145 prostate)	TGI (HT29 colon)	TGI (NCI-H460 lung)	TGI (NCI-H522 lung)	TGI (OVCAR-4 ovarian)	TGI (PC-3 prostate)	TGI (SF-268 CNS)	TGI (SF-295 CNS)	TGI (UACC-62 melanoma)	GI50 (ACHN renal)	GI50 (DU-145 prostate)	GI50 (HT29 colon)	GI50 (OVCAR-4 ovarian)	GI50 (SF-268 CNS)	GI50 (SF-295 CNS)	GI50 (UACC-62 melanoma)	GI50 (NCI-H460 lung)	GI50 (NCI-H522 lung)	GI50 (PC-3 prostate)
CC(C)(C)COS(=O)OCC(C)(C)C	> 100 µM	> 100 µM	> 100 µM	> 100 µM	> 100 µM	> 100 µM	> 100 µM	> 100 µM	> 100 µM	> 100 µM										
COc1cc2cc[n+](C)c(Cc3ccc(Oc4cc(Cc5c6cc(OC)c(OC)cc6cc[n+]5C)ccc4OC)cc3)c2cc1OC	> 100 µM	> 100 µM	> 100 µM	> 100 µM	> 100 µM	> 100 µM	> 100 µM	> 100 µM	> 100 µM	> 100 µM										
CC(C)C(=O)CC(c1ccc(Br)cc1)N1N=C(C(C)C)CC1c1ccc(Br)cc1 (stereo unspecified)	> 100 µM		> 100 µM	> 100 µM	> 100 µM	> 100 µM		> 100 µM												
CC(CCCCNC(=O)OC(C)(C)C)NC(=O)NC(C)CCCCNC(=O)OC(C)(C)C (stereo unspecified)	> 100 µM	> 100 µM	> 100 µM	> 100 µM	> 100 µM	> 100 µM	> 100 µM	> 100 µM	> 100 µM	> 100 µM										
C[C@]12O[C@@]3(C)O[C@@]3(C)[C@]3(C)O[C@]3(C)[C@@]1(C)O2	> 100 µM	> 100 µM	> 100 µM		> 100 µM	> 100 µM	> 100 µM	> 100 µM	> 100 µM	> 100 µM										
Cc1c2ccccc2cc2cccc[n+]12	> 100 µM	> 100 µM	> 100 µM	> 100 µM	37.4 µM		> 100 µM	40.4 µM	> 100 µM	> 100 µM										
Cc1ccc(S(=O)(=O)Nc2cc(=O)[nH]c3c2CCC3)cc1	> 100 µM	> 100 µM	> 100 µM	> 100 µM	> 100 µM	> 100 µM	> 100 µM	> 100 µM	> 100 µM	> 100 µM										
C/C=C/C(O)P(=O)(OC)OC (stereo unspecified)	1.25 µM	1.49 µM	1.11 µM	0.93 µM	0.664 µM	1.51 µM	1.43 µM	0.914 µM	1.39 µM	0.785 µM										
c1ccc(C[N+]23C(CC[C@H]2c2ccccc2)CC[C@H]3c2ccccc2)cc1 (stereo partly specified)	> 100 µM	> 100 µM	> 100 µM		> 100 µM	> 100 µM	> 100 µM	> 100 µM	> 100 µM											
Clc1cccc(/C=c2\nc(-c3ccccc3)n3c2nc2ccccc23)c1		> 100 µM	> 100 µM	> 100 µM		> 100 µM	> 100 µM	> 100 µM	> 100 µM	> 100 µM										
Nc1csc(-c2scc3c2OCCO3)c1N	> 100 µM	53.8 µM	52.6 µM	73.7 µM	33.8 µM	> 100 µM	62.5 µM	47.5 µM	38.3 µM	45.1 µM										
CCCC(=O)Nc1cc(/C=C/C(=O)N2CC(CCl)c3c2cc(OC(C)=O)c2[nH]cc(C)c32)n(C)c1 (stereo unspecified)		0.00453 µM	> 0.25 µM	0.000419 µM	4.26e-05 µM	0.0213 µM		< 2.5e-05 µM	0.000311 µM	4.23e-05 µM										
C=CCc1cccc(/C(O)=C/C(=O)/C=C/c2ccccc2Cl)c1O	> 100 µM	> 100 µM	42.5 µM	> 100 µM	31 µM		85 µM	> 100 µM	> 87.7 µM	43.3 µM										
CN(CCCN1CCCC1)CCCN(C)C(=O)Cc1ccc(Cl)c(Cl)c1	> 68.3 µM	> 100 µM	17.5 µM	33.8 µM	32.4 µM	> 96.1 µM	> 74.4 µM	> 51.5 µM	36.2 µM	5.04 µM										
CC1(C)CC(C(=O)OCCCCCCCCCCC[P+](c2ccccc2)(c2ccccc2)c2ccccc2)C(C)(C)N1O (stereo unspecified)	1.48 µM	1.39 µM	1.17 µM			1.4 µM		1.54 µM	0.538 µM	1.24 µM	0.422 µM	0.319 µM	0.21 µM	0.249 µM	0.394 µM	0.211 µM	0.253 µM			
NC(N)=N/N=C/c1c(-c2cccs2)nc2n1CCS2	40.9 µM		30.9 µM	40.6 µM	> 100 µM		36 µM	53.3 µM	30.6 µM	26.4 µM	20.8 µM		17.2 µM		25.5 µM	14 µM	13.5 µM	18.7 µM	38.2 µM	19.7 µM
CCOC(=O)c1cccc(N=Nc2ncc(/C=C/C(=O)OC)[nH]2)c1	72 µM	> 100 µM	> 100 µM	34.5 µM	47.2 µM	> 100 µM	> 100 µM	> 100 µM	63.2 µM	63.2 µM										
CCOC(=O)/C=C/C1=C(Br)[C@@]2(C)CC[C@@H]3c4ccc(O)cc4CC[C@H]3[C@@H]2C1	29.1 µM	19.1 µM	27.8 µM	28.4 µM	14.2 µM	27.7 µM	28.5 µM	33 µM	29.2 µM	19.4 µM										
CC12OC(C(=O)C13CCC3)C1C(=O)c3c(O)ccc(O)c3C(=O)C12 (stereo unspecified)	2.01 µM	19.5 µM	> 51.6 µM	29.3 µM	10.2 µM	> 100 µM	9.09 µM	26.3 µM	10.3 µM	> 36.6 µM	0.715 µM	5.01 µM	0.897 µM	4.06 µM	7.96 µM		3.56 µM	7.46 µM	2.95 µM	2.72 µM
COc1cc(/C=C2\CC3C4CC[C@H]5C[C@@H](O)CC[C@]5(C)C4CC[C@]3(C)\C2=N\O)cc(OC)c1OC (stereo partly specified)	39.8 µM	> 100 µM	> 100 µM	82.9 µM	94.8 µM	37.9 µM	55.1 µM	> 100 µM	15.4 µM	35 µM										
